US4556660A, “N-(Bicyclic heterocyclyl)-4-piperidinamines” (Janssen Pharmaceutica N.V., priority 1983, dated 1985)
Where two headings read alike, the source gives them in different places.

Key:
[1] = tested on: serotonin; compound 48/80-induced gastric lesions; test: Antagonistic activity on the effects of serotonin in the gastric lesion test (lesions induced by compound 48/80); format: in vivo, Male rats of a Wistar inbred strain
Description: Antagonistic activity on the effects of serotonin in the gastric lesion test
Male rats of a Wistar inbred strain, weighing 220-250 g, were starved overnight, water being available ad libitum. The test compounds were administered orally as a solution or as a suspension in aqueous medium. A control rat and a "blank" rat received the test compound. One hour later 5-[4-(diphenylmethyl)-1-piperazinylmethyl]-1-methyl-1H-benzimidazole-2-methanol was administered subcutaneously to all rats at the dose of 2.5 mg/kg.
Four hours after the intravenous injection of compound 48/80, the rats were decapitated and the stomachs were removed. Subsequently the stomachs were inspected for distension and contents (blood, fluid, food) and thoroughly rinsed. The macroscopic lesions were scored from 0 to +++, 0 corresponding to complete absence of visible lesions and the highest score corresponding to reddish rough patches covering more than half the glandular area.

[2] = tested on: compound 48/80-induced lethality; test: Protection of rats from compound 48/80-induced lethality; format: in vivo, Male rats of an inbred Wistar strain; details: Rattus norvegicus, 4 h, read-out: compound 48/80 lethality test rats-ED50
Description: Protection of rats from compound 48/80-induced lethality
The protection from compound 48/80-induced lethal circulatory collapse appears to be a simple way of evaluating quantitatively the antihistaminic activity of test compounds. Male rats of an inbred Wistar strain, weighing 240-260 g were used in the experiment. After overnight starvation the rats were transferred to conditioned laboratories (temp.=21±1° C., relative humidity-65±5%).
The rats were treated subcutaneously or orally with a test compound or with the solvent (NaCl solution, 0.9%). […] Survival after 4 hours is therefore considered to be a safe criterion of a protective effect of drug administration.
The ED50 -values of the compounds of formula (I) and the intermediates of formula (XVIII) are listed in the first column of table 1 and table 2. Said ED50 -values are the values in mg/kg body weight at which the tested compounds protect 50% of the tested animals against compound 48/80-induced lethality.

[3] = Rattus norvegicus, po; read-out: gastric lesion test ED50
[4] = Rattus norvegicus, po, read-out: gastric lesion test ED50

With `COc1ccc(Cn2c(NC3CCN(CCNc4ncccn4)CC3)nc3ccccc32)cc1` [Compound 69, 1-[(4-methoxyphenyl)methyl]-N-[1-[2-(2-pyrimidinylamino)ethyl]-4-piperidinyl]-1H-benzimidazol-2-amine] the ED50 [1, 3] was 2.5 mg/kg and the ED50 [2] was 0.31 mg/kg.

Compound `Fc1ccc(Cn2c(NC3CCN(CCOc4ccc5ccccc5n4)CC3)nc3ccccc32)cc1` [Compound 77, 1-[(4-fluorophenyl)methyl]-N-[1-[2-(2-quinolinyloxy)ethyl]-4-piperidinyl]-1H-benzimidazol-2-amine] has an ED50 [1, 3] of 2.5 mg/kg and an ED50 [2] of 1.25 mg/kg.

With `O=C(O)/C=C/C(=O)O.O=C(O)/C=C/C(=O)O.c1cnc(OCCN2CCC(Nc3nc4ccccc4n3Cc3ccco3)CC2)nc1` [Compound 83, 1-(2-furanylmethyl)-N-[1-[2-(2-pyrimidinyloxy)ethyl]-4-piperidinyl]-1H-benzimidazol-2-amine (E)-2-butenedioate (1:2)] the ED50 [1, 3] was 1.25 mg/kg and the ED50 [2] was 0.08 mg/kg.

With `O=c1ccnc(NCCN2CCC(Nc3nc4ccccc4n3Cc3ccc(F)cc3)CC2)[nH]1` [Compound 87] the ED50 [1, 3] was 0.63 mg/kg and the ED50 [2] was 0.08 mg/kg.

For `O=[N+]([O-])c1cc[n+]([O-])cc1NCCN1CCC(Nc2nc3ccccc3n2Cc2ccc(F)cc2)CC1` [Compound 14], the ED50 [1, 3] was 1.25 mg/kg and the ED50 [2] was 0.04 mg/kg.

Compound `CC(=O)N(CCN1CCC(Nc2nc3ccccc3n2Cc2ccc(F)cc2)CC1)c1ncccn1.O=C(O)/C=C/C(=O)O.O=C(O)/C=C/C(=O)O` [Compound 99, N-[2-[4-[[1-[(4-fluorophenyl)methyl]-1H-benzimidazol-2-yl]amino]-1-piperidinyl]ethyl]-N-(2-pyrimidinyl)acetamide (E)-2-butenedioate (1:2)] has an ED50 [1, 3] of 0.63 mg/kg and an ED50 [2] of 0.04 mg/kg.

`Fc1ccc(Cn2c(NC3CCN(CCNc4ncccc4Cl)CC3)nc3ccccc32)cc1` [Compound 40] showed an ED50 [1, 3] of 0.31 mg/kg and an ED50 [2] of 0.16 mg/kg.

In the case of `Nc1c(Cl)ncnc1NCCN1CCC(Nc2nc3ccccc3n2Cc2ccc(F)cc2)CC1` [Compound 31, 6-chloro-N^4-[2-[4-[[1-[(4-fluorophenyl)methyl]-1H-benzimidazol-2-yl]amino]-1-piperidinyl]ethyl]-4,5-pyrimidinediamine], the ED50 [1, 3] is reported as 1.25 mg/kg and the ED50 [2] is reported as 0.16 mg/kg.

In the case of `Cc1cc(=O)[nH]c(NCCN2CCC(Nc3nc4ccccc4n3Cc3ccc(F)cc3)CC2)n1` [Compound 90], the ED50 [1, 3] is reported as 0.63 mg/kg and the ED50 [2] is reported as 0.16 mg/kg.

`Clc1ccc(Cn2c(NC3CCN(CCNc4ncccn4)CC3)nc3ccccc32)cc1` [Compound 68, 1-[(4-chlorophenyl)methyl]-N-[1-[2-(2-pyrimidinylamino)ethyl]-4-piperidinyl]-1H-benzimidazol-2-amine] showed an ED50 [1, 3] of 2.5 mg/kg and an ED50 [2] of 0.16 mg/kg.

Compound `Fc1ccc(Cn2c(NC3CCN(CCCCNc4ncccn4)CC3)nc3ccccc32)cc1` [Compound 2] has an ED50 [1, 3] of 2.5 mg/kg and an ED50 [2] of 0.16 mg/kg.

For `Nc1nccnc1C(=O)NCCN1CCC(Nc2nc3ccccc3n2Cc2ccc(F)cc2)CC1` [Compound 113, 3-amino-N-[2-[4-[[1-[(4-fluorophenyl)methyl]-1H-benzimidazol-2-yl]amino]-1-piperidinyl]ethyl]-2-pyrazinecarboxamide], the ED50 [1, 3] was 0.16 mg/kg and the ED50 [2] was 0.04 mg/kg.

`NC(=O)c1cccnc1NCCN1CCC(Nc2nc3cccnc3n2Cc2ccc(F)cc2)CC1` [Compound 24, 2-[[2-[4-[[3-[(4-fluorophenyl)methyl]-3H-imidazo[4,5-b]pyridin-2-yl]amino]-1-piperidinyl]ethyl]amino]-3-pyridinecarboxamide] was tested, and the ED50 [1, 4] was 0.04 mg/kg and the ED50 [2] was 0.04 mg/kg.

Work on `Brc1ccc(NCCN2CCC(Nc3nc4ccccc4n3Cc3ccccc3)CC2)nc1` [Compound 49] yielded an ED50 [1, 3] of 2.5 mg/kg and an ED50 [2] of 0.31 mg/kg.

Compound `Cl.Cl.Cl.Nc1cccnc1NCCN1CCC(Nc2nc3ccccc3n2Cc2ccc(F)cc2)CC1` [Compound 93, N^2-[2-[4-[[1-[(4-fluorophenyl)methyl] -1H-benzimidazol-2-yl]amino]-1-piperidinyl]ethyl]-2,3-pyridinediamine trihydrochloride] has an ED50 [1, 3] of 0.31 mg/kg and an ED50 [2] of 0.08 mg/kg.

`Nc1cncnc1NCCN1CCC(Nc2nc3ccccc3n2Cc2ccc(F)cc2)CC1` [Compound 96, N^4-[2-[4-[[1-[(4-fluorophenyl)methyl]-1H-benzimidazol-2-yl]amino]-1-piperidinyl]ethyl]-4,5-pyrimidinediamine] gave an ED50 [1, 3] of 0.02 mg/kg and an ED50 [2] of 0.08 mg/kg.

`Fc1ccc(Cn2c(NC3CCN(CCNc4ncnc5ccccc45)CC3)nc3ccccc32)cc1` was tested, and the ED50 [1, 3] was 2.5 mg/kg and the ED50 [2] was 0.08 mg/kg.

In the case of `CN(CCN1CCC(Nc2nc3ccccc3n2Cc2ccc(F)cc2)CC1)c1ncccn1` [Compound 10], the ED50 [1, 3] is reported as 0.63 mg/kg and the ED50 [2] is reported as 0.08 mg/kg.

For `Fc1ccc(Cn2c(NC3CCN(CCN(Cc4ccccc4)c4ncccn4)CC3)nc3ccccc32)cc1` [Compound 8], the ED50 [1, 3] was 0.63 mg/kg and the ED50 [2] was 0.63 mg/kg.

In the case of `O=C(O)/C=C/C(=O)O.O=C(O)/C=C/C(=O)O.O=C(OCCN1CCC(Nc2nc3ccccc3n2Cc2ccc(F)cc2)CC1)c1ccc2ccccc2n1` [Compound 112, [2-[4-[[1-[(4-fluorophenyl)methyl]-1H-benzimidazol-2-yl]amino]-1-piperidinyl]ethyl]-2-quinolinecarboxylate (E)-2-butenedioate (1:2)], the ED50 [1, 3] is reported as 0.63 mg/kg and the ED50 [2] is reported as 0.04 mg/kg.

`CC(CN1CCC(Nc2nc3ccccc3n2Cc2ccc(F)cc2)CC1)Nc1ncccn1` (stereo not shown) [Compound 7] gave an ED50 [1, 3] of 0.63 mg/kg and an ED50 [2] of 0.63 mg/kg.

Work on `c1ccc(Cn2c(NC3CCN(CCNc4ncccn4)CC3)nc3ccccc32)cc1` [Compound 65, 1-(phenylmethyl)-N-[1-[2-[(2-pyrimidinyl)amino]ethyl]-4-piperidinyl]-1H-benzimidazol-2-amine] yielded an ED50 [1, 3] of 0.31 mg/kg and an ED50 [2] of 0.08 mg/kg.

`Cc1ccc(Cn2c(NC3CCN(CCNc4ncccn4)CC3)nc3ccccc32)cc1` [Compound 67, 1-[(4-methylphenyl)methyl]-N-[1-[2-[(2-pyrimidinyl)amino]ethyl]-4-piperidinyl]-1H-benzimidazol-2-amine] was tested, and the ED50 [1, 4] was 0.63 mg/kg and the ED50 [2] was 0.16 mg/kg.

Compound `c1cnc(NCCN2CCC(Nc3nc4ccccc4n3Cc3cccs3)CC2)nc1` [Compound 19] has an ED50 [1, 3] of 2.5 mg/kg and an ED50 [2] of 0.02 mg/kg.

`CCCc1cc(O)nc(NCCN2CCC(Nc3nc4ccccc4n3Cc3ccc(F)cc3)CC2)n1` [Compound 86, 2-[[2-[4-[[1-[(4-fluorophenyl)methyl]-1H-benzimidazol-2-yl]amino]-1-piperidinyl]ethyl]amino]-6-propyl-4-pyrimidinol] was tested, and the ED50 [1, 3] was 2.5 mg/kg and the ED50 [2] was 0.31 mg/kg.

`O=[N+]([O-])c1ccc(NCCN2CCC(Nc3nc4ccccc4n3Cc3ccc(F)cc3)CC2)nc1` [Compound 13] was tested, and the ED50 [1, 3] was 2.5 mg/kg and the ED50 [2] was 0.31 mg/kg.

In the case of `c1cnc(NCCN2CCC(Nc3nc4cccnc4n3Cc3ccco3)CC2)nc1` [Compound 28, 3-(2-furanylmethyl)-N-[1-[2-(2-pyrimidinylamino)ethyl]-4-piperidinyl]-3H-imidazo[4,5-b]pyridin-2-amine], the ED50 [1, 3] is reported as 0.63 mg/kg and the ED50 [2] is reported as 0.04 mg/kg.

For `Fc1ccc(Cn2c(NC3CCN(CCNc4ncccc4Cl)CC3)nc3cccnc32)cc1` [Compound 47], the ED50 [1, 3] was 0.31 mg/kg and the ED50 [2] was 0.08 mg/kg.

Compound `Fc1ccc(Cn2c(NC3CCN(CCNc4cnccn4)CC3)nc3ccccc32)cc1` [Compound 33] has an ED50 [1, 3] of 2.5 mg/kg and an ED50 [2] of 0.16 mg/kg.

Compound `COc1ccc2c(c1)nc(NC1CCN(CCNc3ncccn3)CC1)n2Cc1ccc(F)cc1` has an ED50 [1, 3] of 2.5 mg/kg and an ED50 [2] of 1.25 mg/kg.

`Fc1ccc(Cn2c(NC3CCN(C4CCCN(c5ncccn5)C4)CC3)nc3ccccc32)cc1` (stereo not shown) [Compound 12] showed an ED50 [1, 3] of 2.5 mg/kg and an ED50 [2] of 1.25 mg/kg.

For `Fc1ccc(Cn2c(NC3CCN(CCCCCNc4ncccn4)CC3)nc3ccccc32)cc1` [Compound 22], the ED50 [1, 4] was 0.08 mg/kg and the ED50 [2] was 0.31 mg/kg.

With `Cl.Cl.Cl.Fc1ccc(Cn2c(NC3CCN(CCCNc4ccc(Cl)cn4)CC3)nc3ccccc32)cc1.O` [Compound 30, N-[1-[3-[(5-chloro-2-pyridinyl)amino]propyl]-4-piperidinyl]-1-[(4-fluorophenyl)methyl]-1H-benzimidazol-2-amine trihydrochloride monohydrate] the ED50 [1, 3] was 2.5 mg/kg and the ED50 [2] was 0.63 mg/kg.

In the case of `N#CCN1CCC(Nc2nc3ncccc3n2Cc2ccc(F)cc2)CC1` [Intermediate 79], the ED50 [1, 3] is reported as 0.63 mg/kg and the ED50 [2] is reported as 0.16 mg/kg.

`COc1ccc2nc(NC3CCN(CCNc4ncccn4)CC3)n(Cc3ccc(F)cc3)c2c1` gave an ED50 [1, 3] of 2.5 mg/kg and an ED50 [2] of 1.25 mg/kg.

`Oc1ccc2c(c1)nc(NC1CCN(CCNc3ncccn3)CC1)n2Cc1ccc(F)cc1` gave an ED50 [1, 3] of 2.5 mg/kg and an ED50 [2] of 0.16 mg/kg.

With `CSc1nccc(OCCN2CCC(Nc3nc4ccccc4n3Cc3ccc(F)cc3)CC2)n1` [Compound 79, 1-[(4-fluorophenyl)methyl]-N-[1-[2-[[2-(methylthio)-4-pyrimidinyl]oxy]ethyl]-4-piperidinyl]-1H-benzimidazol-2-amine] the ED50 [1, 3] was 2.5 mg/kg and the ED50 [2] was 0.16 mg/kg.

With `CN(c1nc2ccccc2n1Cc1ccc(F)cc1)C1CCN(CCNc2ncccn2)CC1` [Compound 75] the ED50 [1, 4] was 0.63 mg/kg and the ED50 [2] was 0.08 mg/kg.
